For data set [1] the following is noted: in vivo; cited from earlier work.
For data set [2] the following is noted: in vivo; cited from earlier work. This is another data set of the same source.
Data set [3] has as its system quadriceps (knee extensor musculature). Set-up: species or system New Zealand White rabbits. Particulars: rabbit, in vivo.
The test system of data set [4] is quadriceps muscle. Set-up: species or system New Zealand White rabbits. Particulars: rabbit, in vivo.
Data set [5] relates to joints (arthritis). The conditions noted are these: dog, in vivo.
The subject of data set [6] is skeletal muscle. Particulars: in vivo; cited from earlier work.

We go through 5 compounds from patent US20210077439A1 (priority 2016, published 2021).

`CC(C)(O)CC(=O)O` [HMB, β-hydroxy-β-methylbutyric acid]: the “loss of HMB to urine” value in data set [1] is given as 20-50%. For the same compound, the side effects result in data set [2] is recorded as “no side effects”. Besides, the “botox-induced loss of strength in the contralateral musculature” value in data set [3] was “prevented much of the botox-induced loss of strength”. Moreover, in data set [4], the “contralateral muscle weights as a percentage of body weight versus botox (p<0.10) and control (p<0.03) groups” value was “larger contralateral musculature”; the “muscle hypertrophy in the contralateral leg” value was “greatly increased”. In addition, in data set [5], the “ataxia, owner-observed, after resuming the HMB regimen” value is “significant improvement”; the “joint stability and movement, owner-observed outcome” value is “increased joint stability, decreased joint instability, improved balanced movement and stability of skeletal joints”; the “mobility after resuming the HMB regimen during anti-seizure medication” value was “began standing up without assistance, and was able to climb stairs without significant assistance”.
Turning to `CC(C)(O)CC(=O)O` [HMB-FA], in data set [1], the “plasma levels of HMB compared with calcium HMB” value is reported as “approximately double” and the “time to plasma level compared with calcium HMB” value is recorded as “about one-quarter the time”. For the same compound, in data set [6], the “decrease in protein breakdown” value is reported as −56% and the “increase in skeletal muscle protein synthesis” value is given as “+70%”.
For `NCC1(CC(=O)O)CCCCC1` [gabapentin, reference compound], the “adverse effect of the seizure treatment” value in data set [5] was “severe ataxia”.
Still for that read-out and setting: with `CCC1(c2ccccc2)C(=O)NC(=O)NC1=O` [phenobarbital, reference compound] the entry was “severe ataxia”; with `[Br-].[K+]` [potassium bromide, reference compound], “severe ataxia”.
